In patent publication US8063221B2, “Aminoquinolones as GSK-3 inhibitors” (Kyorin Pharmaceutical Co., Ltd., priority 2006, dated 2011) one finds IC50, inhibition in vivo and MIC data, which are given here for 20 compounds.

≈ marks a conversion by molar mass, not a printed value. Read-outs that look alike come from different tables or passages of the source.

Test [1] deals with T1, recombinant full-length human GSK3β (Homo sapiens, UniProt P49841).
T1 construct: recombinant full-length human GSK3β (Upstate); purchased Upstate
Briefly: Luciferase-coupled cell-free GSK3β kinase assay. The class given is biochemical. A digest of the protocol:
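GSK3β, 10-25 ng, was incubated with compound for 1 h at 30° C in MOPS pH 7.0 buffer containing 62.5 μM phospho-glycogen synthase peptide-2 and 5 μM ATP. Remaining ATP was read by KinaseGlo luminescence, and IC50 was fitted from % inhibition relative to maximal inhibition.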

Test [2] is described as follows: Animal Study 2 (oral glucose tolerance test). Set-up: species or system Crlj:CD1 (ICR) mice. Particulars: Mus musculus; Table 2; 300 mg/kg oral, ICR mice; plasma glucose 0.5 and 1 hr after glucose load vs vehicle; read-out: In vivo studies 300 mg/kg (oral glucose tolerance test, % decrease). The source says:
The results of in vivo oral glucose tolerance test (Example 39), expressed as % decrease, are presented as follows: […]
Animal Study 2 (Oral Glucose Tolerance Test)
Male Crlj:CD1 (ICR) mice were obtained from Charles River Laboratries Japan (Yokohama, Japan). All mice were given a standard diet (Clea Japan, Tokyo, Japan) and tap water ad libitum. All institutional guidelines for animal care and use were applied in this study. Test compounds were suspended in 0.3% carboxymethyl-cellulose sodium salt (CMC-Na; Sigma, St. Louis, Mo.). After fasting for 15-17 hr, the test compound (300 mg/kg) or vehicle (0.3% CMC-Na) was orally administered to 7-week-old ICR mice. Glucose solution (5 g/kg) was orally administered at 30 min after test compound treatment. Blood samples were collected from tail vein using capillary tubes containing EDTA·2K before test compound treatment, and at 0, 0.5, 1, and 2 hr after glucose load. The blood samples were centrifuged at 2,500×g for 5 min and separated plasma was kept on ice and analyzed in the same day. Plasma glucose levels were determined using the glucose C II-test (Wako Pure Chemical Industries, Osaka, Japan).
The sum of plasma glucose levels at 0.5 and 1 hr after glucose load was compared to that of vehicle treatment, and results were presented as percent decrease.

Test [3] concerns E. coli, ATCC8739. Briefly: Antibacterial activity (MIC), E. coli. It is filed as cell-based. Particulars: Escherichia coli. A digest of the protocol: (§1)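 MIC, the lowest compound concentration inhibiting bacterial growth in culture medium, determined by dilution method per CLSI M7-A4 guidance; reported in μM.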
The subject of test [4] is S. aureus Smith. Briefly: Antibacterial activity (MIC), S. aureus. The class given is cell-based. Particulars: Staphylococcus aureus. An outline of the steps:
as §1

[5] abbreviates: ATCC8739, Table 1, E. coli ATCC8739, read-out: Antibacterial MIC (μM) E.Coli.
[6] abbreviates: Table 1, read-out: Antibacterial MIC (μM) S. aureus Smith.
The mark [7] stands for this setting: ATCC8739, read-out: Antibacterial MIC (μM) E.Coli.
Setting [8] is: read-out: Antibacterial MIC (μM) S. aureus Smith.

T1 sequence (P49841 whole entry): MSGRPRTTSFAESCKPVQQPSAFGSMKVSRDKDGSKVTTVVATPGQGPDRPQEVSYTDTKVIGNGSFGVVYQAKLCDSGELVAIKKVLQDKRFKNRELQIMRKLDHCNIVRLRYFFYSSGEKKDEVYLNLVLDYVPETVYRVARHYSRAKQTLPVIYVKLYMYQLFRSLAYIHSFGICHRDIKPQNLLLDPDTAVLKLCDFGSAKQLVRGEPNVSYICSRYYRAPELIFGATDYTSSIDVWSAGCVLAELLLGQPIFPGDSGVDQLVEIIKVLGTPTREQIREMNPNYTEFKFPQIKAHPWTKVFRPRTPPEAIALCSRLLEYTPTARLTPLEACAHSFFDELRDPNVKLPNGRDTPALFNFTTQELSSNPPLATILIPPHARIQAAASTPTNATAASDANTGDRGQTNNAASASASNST

For the compound `C[C@H]1COc2c(NCCCc3ccccn3)c(F)c(N)c3c(=O)c(C(=O)O)cn1c23` [compound 70], the concentration for half-maximal inhibition (IC50) in test [1] (Table 2) is under 0.1 µM. In test [2], the inhibition in vivo at 300 mg/kg is over 20%.
For `C[C@H]1COc2c(NCCCc3ccc(F)cc3)c(F)c(N)c3c(=O)c(C(=O)O)cn1c23` [compound 72] the same measures were under 0.1 µM and over 20%.
On to `Nc1c(F)c(NCCCc2ccccc2)c(F)c2c1c(=O)ccn2C1CCCC1` [compound 72], for which the IC50 in test [1] (Table 1) was under 0.1 µM. Also, the MIC in test [3] (setting [5]) and in test [4] (setting [6]) was 10 to 50 µM (≈ 3.97 to 19.9 µg/mL) in each case.
As for `Nc1c(F)c(NCCc2ccncc2)c(F)c2c1c(=O)ccn2C1CCCC1` [compound 73], in test [1] (Table 1), the IC50 is under 0.1 µM. Moreover, the MIC in test [3] (setting [5]) and in test [4] (setting [6]) was over 50 µM each time.
`Nc1c(F)c(NCCCn2ccnc2)c(F)c2c1c(=O)ccn2C1CCCC1` [compound 74]: the IC50 in test [1] (Table 1) was under 0.1 µM. The MIC in test [3] (setting [5]) and in test [4] (setting [6]) was over 50 µM in each case.
For the compound `CC(C)OCCCNc1c(F)c(N)c2c(=O)ccn(C3CCCC3)c2c1F` [compound 75], in test [1] (Table 1), the concentration for half-maximal inhibition (IC50) is 0.1 to 0.5 µM. Besides, the MIC in test [3] (setting [5]) and in test [4] (setting [6]) was over 50 µM each time.
As for `CCN(CCCNc1c(F)c(N)c2c(=O)c(C(=O)O)cn3c2c1OC[C@@H]3C)c1ccccc1` [compound 76], in test [1] (Table 2), the IC50 is under 0.1 µM. The inhibition in vivo at 300 mg/kg in test [2] was over 20%.
For the compound `Nc1c(F)c(NCCNc2ccccn2)c(F)c2c1c(=O)ccn2C1CCCC1` [compound 76], the IC50 in test [1] (Table 1) is under 0.1 µM. Moreover, the MIC in test [3] (setting [5]) and in test [4] (setting [6]) was over 50 µM each time.
For the compound `COc1c(NCCNc2ccccn2)c(F)c(N)c2c(=O)c(C(=O)O)cn(C3CCCC3)c12` [compound 77], the 50% inhibitory concentration (IC50) in test [1] (Table 1) was over 1 µM. Moreover, the MIC lay in the range of 10 to 50 µM (≈ 4.55 to 22.8 µg/mL) in test [3] (setting [5]) and 0.5 to 10 µM (≈ 0.228 to 4.55 µg/mL) in test [4] (setting [6]).
The matching figures for `COc1c(NCCCn2ccnc2)c(F)c(N)c2c(=O)c(C(=O)O)cn(C3CCCC3)c12` [compound 78]: 0.5 to 1 µM, over 50 µM and over 50 µM.
With `CC1(C)COc2c(NCCCn3ccnc3)c(F)c(N)c3c(=O)ccn1c23` [compound 79], in test [1] (Table 2), the 50% inhibitory concentration (IC50) is under 0.1 µM. Further, the minimum inhibitory concentration (MIC) in test [3] (ATCC8739, read-out: Antimicrobial MIC [μM] E. Coli) was over 50 µM; in test [4] (read-out: Antimicrobial MIC [μM] S. aureus), over 50 µM.
On to `COc1c(NCCCc2ccccc2)c(F)c(N)c2c(=O)c(C(=O)O)cn(C3CCCC3)c12` [compound 79], for which the concentration for half-maximal inhibition (IC50) in test [1] (Table 1) is 0.1 to 0.5 µM. Further, the MIC in test [3] (setting [7]) and in test [4] (setting [8]) was 10 to 50 µM (≈ 4.54 to 22.7 µg/mL) in each case.
Turning to `COc1c(NCCc2ccncc2)c(F)c(N)c2c(=O)c(C(=O)O)cn(C3CCCC3)c12` [compound 80], the IC50 in test [1] (Table 1) was over 1 µM. In addition, the minimum inhibitory concentration (MIC) is over 50 µM in test [3] (setting [5]) and 10 to 50 µM (≈ 4.4 to 22 µg/mL) in test [4] (setting [6]).
As for `C[C@H]1COc2c(NCCCNC(=O)C34CC5CC(CC(C5)C3)C4)c(F)c(N)c3c(=O)c(C(=O)O)cn1c23` [compound 80], in test [1] (Table 2), the IC50 was under 0.1 µM. In addition, the inhibition in vivo at 300 mg/kg in test [2] was 5 to 10%.
Regarding `CC1COc2c(NCCCc3ccccc3)c(F)c(N)c3c(=O)c(C(=O)O)cn1c23` (centres unmarked) [compound 81], the half-inhibitory concentration (IC50) in test [1] (Table 1) was under 0.1 µM. Also, the minimal inhibitory concentration (MIC) was 10 to 50 µM (≈ 4.11 to 20.6 µg/mL) in test [3] (setting [5]) and 0.5 to 10 µM (≈ 0.206 to 4.11 µg/mL) in test [4] (setting [6]).
The matching figures for `COc1c(NCCCOc2ccccc2)c(F)c(N)c2c(=O)c(C(=O)O)cn(C3CC3)c12` [compound 82]: over 1 µM, 10 to 50 µM (≈ 4.41 to 22.1 µg/mL) and 10 to 50 µM (≈ 4.41 to 22.1 µg/mL).
`COc1c(NCCCn2cnc3ccccc32)c(F)c(N)c2c(=O)c(C(=O)O)cn(C3CC3)c12` [compound 83]: the IC50 in test [1] (Table 1) is under 0.1 µM. Also, the minimum inhibitory concentration (MIC) in test [3] (setting [7]) was 10 to 50 µM (≈ 4.65 to 23.3 µg/mL); in test [4] (setting [8]), 0.5 to 10 µM (≈ 0.233 to 4.65 µg/mL).
Turning to `COc1c(NCCNc2ccccc2)c(F)c(N)c2c(=O)c(C(=O)O)cn(C3CC3)c12` [compound 84], in test [1] (Table 1), the IC50 was in the range of 0.1 to 0.5 µM. Moreover, the minimum inhibitory concentration (MIC) in test [3] (setting [5]) is 10 to 50 µM (≈ 4.26 to 21.3 µg/mL); in test [4] (setting [6]), 0.5 to 10 µM (≈ 0.213 to 4.26 µg/mL).
Consider `COc1c(NCCc2cccnc2)c(F)c(N)c2c(=O)c(C(=O)O)cn(C3CC3)c12` [compound 85], for which the IC50 in test [1] (Table 1) was over 1 µM. In addition, the minimal inhibitory concentration (MIC) in test [3] (setting [7]) is 0.5 to 10 µM (≈ 0.206 to 4.12 µg/mL); in test [4] (setting [8]), under 0.5 µM.
In the case of `CC1COc2c(NCCNc3ccccn3)c(F)c(N)c3c(=O)c(C(=O)O)cn1c23` (centres unmarked) [compound 90], the half-inhibitory concentration (IC50) in test [1] (Table 1) was under 0.1 µM. Also, the minimal inhibitory concentration (MIC) in test [3] (setting [5]) and in test [4] (setting [6]) was 0.5 to 10 µM (≈ 0.207 to 4.13 µg/mL) throughout.

In general, IC50 refers to the concentration that inhibits the measured activity by half. As a reminder, the MIC is the lowest concentration found to suppress growth.
